Entries after “also recorded” stand apart in the source; their conditions may differ.
How the values were obtained:
[1] = tested on: virgin females of Heliothis virescens; test: Pheromonotropic assay (injection); assay type: in vivo
Experimental: Pupae of H. virescens were obtained from a laboratory colony maintained at the Insect Attractants, Behavior and Basic Biology Research Laboratory, USDA-ARS, in Gainesville, Fla. The pupae were separated by sex and the males were discarded. After eclosion, the females were held in 4-1 cages and provided with cotton wicks soaked with 5% sucrose solution. The insects were held at 25°±2° C, 65±3% relative humidity with a 12:12 (L:D) photoperiod. Virgin females were used for bioassays 2 and 3 days after eclosion during the 7th-8th hour of the photophase when endogenous levels of pheromone are very low (Abernathy, 1995, Regulation of sex pheromone production and oviposition in virgin females of noctuid moths, doctoral dissertation, University of Florida, Gainesville, Fla., pp. 1-107).
Pheromone biosynthesis neuropeptide from H. zea (Hez--PBAN) and the carboranyl pseudopeptide Cbe--Thr--Pro--Arg--Leu--NH2 were dissolved in physiological saline (Christensen et al., 1991, Proc. Natl. Acad. Sci. USA, 88:4971-4975). Female H. virescens insects were injected through the side of the third abdominal segment using a 26-ga needle with 20 μl of the above solutions. Each female received a dose of 0.01, 0.03, 0.1, 0.3, 1, 3, 10, 30, 100 or 300 pmol. After 1 h of incubation, the terminal abdominal segments, which contain the pheromone gland, were excised and placed in 10 μl of hexane containing 10 ng each of internal standards (octadecane and nonadecane) used for quantitation and calculation of relative retention indices. The pheromone gland extracts were analyzed for the amount of (Z)-11-hexadecenal (Z11-16:AL), the major sex pheromone component of H. virescens (Klun et al., 1980, J. Chem. Ecol., 6:165-175) by capillary gas chromatography. Hewlett-Packard 5890 gas chromatographs were equipped with splitless injectors, flame ionization detectors, and 30 m×0.25 mm (i.d.) fused silica "SPB 10" (polar) or "SPB1" (apolar) columns (Supelco). Conditions of chromatography were as follows: initial temperature=60° C.; injector operated in the splitless mode for 0.5 min; oven temperature increased by 30° C./min after 1 min; final temperature=190° C. ("SPB10") or 200° C. ("SPB1"); helium carrier gas at a linear flow velocity of 18 cm/s. A Nelson Analytical 3000° acquisition system (Cupertino, Calif.) was used to collect and analyze the data (Teal et al., 1989, Proc. Natl. Acad. Sci. USA, 86:2488-2492).
After the dose response of Hez--PBAN was completed, the […] dose was chosen to use for comparison with the carboranyl pseudopeptide assayed here. Insects were also injected with saline alone as a control. The pseudopeptide was prepared by dilution with saline as described above. Based on the dose-response for the activity of Hez--PBAN, […] were chosen to assess the pheromonotropic activity of the carboranyl pseudopeptide. Females were injected with 20 μl containing 0.01, 0.03, 0.1, 0.3, 1, 3, 10, 30, 100, or 300 pmol. Each bioassay consisted of one dose of several different peptides along with saline and Hez--PBAN controls. The amount of pheromone present in extracts of the pheromone glands of females from each group was compared with that produced by females injected with 5 pmol of Hez--PBAN during that particular bioassay. After all the bioassays were completed, the amount of pheromone produced by each insect was calculated as a percentage of the amount of pheromone produced by females treated with Hez--PBAN. Data were analyzed using one-way ANOVA and t-test with "STATVIEW" software. Variability was reported as SEM.
The pheromonotropic activity of Hez--PBAN, Lom--MT--II and [6--Pha--Ala^0 ]Lom--MT--II was first determined by a series of injection bioassays. Peptides were dissolved in physiological saline (Christensen et al., ibid) and diluted to concentrations of 0.003, 0.01, 0.03, 0.1, 0.3, 1.0, 3.0 and 10.0 pmol/μl. Insects were injected through the side of the 3rd abdominal segment using a 26 ga. needle with 20 μl of the above solutions. […]

[2] = tested on: isolated cockroach (Leucophaea maderae) hindgut; test: Cockroach myotropic bioassay (isolated hindgut); assay type: cell-based
Experimental: Leucophaea maderae cockroaches were taken from stock colonies maintained at 27° C. and fed dry dog food ad lib. Cockroach hindguts, free of central nervous system (CNS) tissue, were dissected, immersed in saline, and prepared for recording of myogenic activity as previously described (Holman et al., 1991, ibid). Threshold concentrations were determined for each analogue by adding a known quantity of peptide (dissolved in 0.5 ml bioassay saline) to the bioassay chamber containing the hindgut and observing the response on a Gould 2200S oscillograph recorder. The quantity of the peptide analogues was calculated from the values obtained for Phe and/or Leu in the amino acid analysis. The threshold concentration was defined as the minimum concentration of peptide in the chamber required to evoke an observable change in the frequency (50%) or amplitude of contractions (5%) within 1 min and sustained for 3 min. Threshold concentrations were obtained from five cockroach hindguts on 5 consecutive days for each peptide. Quantitative data for dose-response plots were obtained as previously described (Holman et al., 1991, ibid).

[3] = isolated hindgut, FIG. 2, listed as carboranyl pseudotetrapeptide

Substance: Cbe--Thr--Pro--Arg--Leu--NH2
- potency relative to 33-membered HezPBAN, injection ([1]; H. virescens): 10 fold
- ED50, pheromone production following injection ([1]; H. virescens females, FIG. 3): 0.1 pmoles/female
- ED50, pheromone production via injection ([1]; H. virescens females, glands extracted 60 min after injection): 0.1 pmol
- dose eliciting a 100% response, injection ([1]; H. virescens, FIG. 3): 2.5 pmoles/female
- potency relative to 33-membered HezPBAN, injection ([1]; H. virescens, listed as carboranyl analog): equipotent
- Maximal Response via injection (dose) ([1]; maximal pheromone production relative to 5 pmoles PBAN via injection): 2.5 pmol
- potency relative to the 8-mer LPK ([2]; hindgut threshold concentration): 10 X
- reversibility of myostimulatory response by saline rinse ([2]; isolated hindgut, FIG. 2, listed as carboranyl analog): could not be reversed even following repeated saline rinses; also recorded: cannot be reversed even following repeated saline rinses
- period over which myostimulatory activity subsides after rinse [2, 3]: about 20 minutes
- reversibility of myostimulatory response by saline rinse [2, 3]: cannot be reversed by one or more saline rinses
- Threshold Concentration, myostimulation of the isolated cockroach hindgut ([2]; minimum concentration evoking observable change in frequency (50%) or amplitude (5%) of contractions): 70 pM

Source: patent publication US5795857A, “Mimetic insect pyrokinin analogs for insect control” (The United States of America as represented by the …, priority 1996, dated 1998)
